Results taken from patent publication US5980933A, “Transdermal formulation of xanomeline” (Eli Liily and Company, priority 1997, dated 1999).

Columns and labels:
[1] = system: muscarinic receptors in the brain; experiment: Ex vivo 3H-pirenzepine binding in rat brain after patch application; details: after oral administration
Procedure: The patches prepared as stated herein were applied to rats. The rats were killed in pairs at various time points after application and the rat brains were removed and frozen. The binding of the M1 antagonist ligand, ^3 H-pirenzepine, to muscarinic receptors in the brain was determined. The decrease in binding is indicative of drug or active metabolite present in the brain. The effect of the drug after oral administration lasts less than 6 hours. The percent of control ex vivo pirenzepine binding at 6 hours was 33%, at 12 hours 15%, at 24 hours 26%, and at 48 hours 53%. The mean plasma concentration using this patch formulation was as follows: […]
The patches prepared as stated herein were applied to rats. The rats were killed in pairs at various time points after application and the rat brains were removed and frozen. The binding of the M1 antagonist ligand, ^3 H-pirenzepine, to muscarinic receptors in the brain was determined. The decrease in binding is indicative of drug or active metabolite present in the brain. The effect of the drug after oral administration lasts less than 6 hours. The percent of control ex vivo pirenzepine binding at 6 hours was 101%, at 12 hours 89%, at 24 hours 75%, and at 48 hours 105%.

[2] = Saturation limit of xanomeline in acrylic adhesive; assay type: physicochemical
Source text: The values had been derived from clear solutions of the drug in the adhesive. Unfortunately, the saturation limit of about 23-28% (w/w) in this polymer limits the utilization of this unexpected advantage of highly enriched xanomeline preparations. It is concluded from this unexpected results that an optimum formulation has to contain a slightly subsaturated, saturated or even supersaturated amount of xanomeline for best performance.

SMILES: CCCCCCOc1nsnc1C1=CCCN(C)C1 [xanomeline, 3-[4-(hexyloxy)-1,2,5-thiadiazol-3-yl]-1,2,5,6-tetrahydro-1-methylpyridine]
- duration of the effect of the drug [1]: less than 6 hours
- saturation limit in this polymer [2]: 23-28 % (w/w)
